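Compound exposure: 48 hours, 5 concentrations, 96-well plates. The concentration for 50% growth inhibition is given as GI50. The concentration for full growth arrest is given as TGI.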
Key:
Test in all cases: growth of human tumour cells (NCI), 48 h
786-0 renal = tested on: 786-0 renal
A498 renal = tested on: A498 renal
A549 NSCLC = tested on: A549 NSCLC
ACHN renal = tested on: ACHN renal
BT-549 breast = tested on: BT-549 breast
CAKI-1 renal = tested on: CAKI-1 renal
CCRF-CEM leukemia = tested on: CCRF-CEM leukemia
COLO 205 colon = tested on: COLO 205 colon
DU-145 prostate = tested on: DU-145 prostate
EKVX NSCLC = tested on: EKVX NSCLC
HCC-2998 colon = tested on: HCC-2998 colon
HCT-116 colon = tested on: HCT-116 colon
HCT-15 colon = tested on: HCT-15 colon
HOP-62 NSCLC = tested on: HOP-62 NSCLC
HOP-92 NSCLC = tested on: HOP-92 NSCLC
HS 578T breast = tested on: HS 578T breast
HT29 colon = tested on: HT29 colon
IGROV1 ovarian = tested on: IGROV1 ovarian
KM12 colon = tested on: KM12 colon
LOX IMVI melanoma = tested on: LOX IMVI melanoma
M14 melanoma = tested on: M14 melanoma
MALME-3M melanoma = tested on: MALME-3M melanoma
MCF7 breast = tested on: MCF7 breast
MDA-MB-231 breast = tested on: MDA-MB-231 breast
MDA-MB-435 = tested on: MDA-MB-435
NCI-H226 lung = tested on: NCI-H226 lung
NCI-H23 lung = tested on: NCI-H23 lung
NCI-H460 lung = tested on: NCI-H460 lung
NCI-H522 lung = tested on: NCI-H522 lung
NCI/ADR-RES ovarian = tested on: NCI/ADR-RES ovarian
OVCAR-3 ovarian = tested on: OVCAR-3 ovarian
OVCAR-4 ovarian = tested on: OVCAR-4 ovarian
OVCAR-5 ovarian = tested on: OVCAR-5 ovarian
OVCAR-8 ovarian = tested on: OVCAR-8 ovarian
PC-3 prostate = tested on: PC-3 prostate
RPMI-8226 leukemia = tested on: RPMI-8226 leukemia
RXF 393 renal = tested on: RXF 393 renal
SF-268 CNS = tested on: SF-268 CNS
SF-295 CNS = tested on: SF-295 CNS
SF-539 CNS = tested on: SF-539 CNS
SK-MEL-2 melanoma = tested on: SK-MEL-2 melanoma
SK-MEL-28 melanoma = tested on: SK-MEL-28 melanoma
SK-MEL-5 melanoma = tested on: SK-MEL-5 melanoma
SK-OV-3 ovarian = tested on: SK-OV-3 ovarian
SN12C renal = tested on: SN12C renal
SNB-19 CNS = tested on: SNB-19 CNS
SNB-75 CNS = tested on: SNB-75 CNS
SR leukemia = tested on: SR leukemia
SW-620 colon = tested on: SW-620 colon
T-47D breast = tested on: T-47D breast
TK-10 renal = tested on: TK-10 renal
U251 CNS = tested on: U251 CNS
UACC-257 melanoma = tested on: UACC-257 melanoma
UACC-62 melanoma = tested on: UACC-62 melanoma
UO-31 renal = tested on: UO-31 renal

COc1ccc2c(c1)CC[C@@H]1[C@@H]2CC[C@]2(C)[C@@H](NC(=O)/C=C/c3ccc(O)c(O)c3)CC[C@@H]12
GI50 (786-0 renal): 2.34 µM | TGI (786-0 renal): 5.48 µM | GI50 (A498 renal): 14.3 µM | TGI (A498 renal): 31.1 µM | GI50 (A549 NSCLC): 4.58 µM | TGI (A549 NSCLC): 17.6 µM | GI50 (ACHN renal): 3.89 µM | TGI (ACHN renal): 14.8 µM | GI50 (BT-549 breast): 5.56 µM | TGI (BT-549 breast): 20.3 µM | GI50 (CAKI-1 renal): 2.03 µM | TGI (CAKI-1 renal): 4.09 µM | GI50 (CCRF-CEM leukemia): 0.731 µM | TGI (CCRF-CEM leukemia): 6.67 µM | GI50 (COLO 205 colon): 14 µM | TGI (COLO 205 colon): 46.8 µM | GI50 (DU-145 prostate): 12.6 µM | TGI (DU-145 prostate): 30.4 µM | GI50 (EKVX NSCLC): 9.98 µM | TGI (EKVX NSCLC): 24.5 µM | GI50 (HCC-2998 colon): 2.05 µM | TGI (HCC-2998 colon): 4.19 µM | GI50 (HCT-116 colon): 2.02 µM | TGI (HCT-116 colon): 10.4 µM | GI50 (HCT-15 colon): 3.2 µM | TGI (HCT-15 colon): 15.4 µM | GI50 (HOP-62 NSCLC): 3.03 µM | TGI (HOP-62 NSCLC): 11.1 µM | GI50 (HOP-92 NSCLC): 2.49 µM | TGI (HOP-92 NSCLC): 11.6 µM | GI50 (HS 578T breast): 18.5 µM | TGI (HS 578T breast): 58.4 µM | GI50 (HT29 colon): 4.74 µM | TGI (HT29 colon): > 100 µM | GI50 (IGROV1 ovarian): 1.98 µM | TGI (IGROV1 ovarian): 12 µM | GI50 (KM12 colon): 2.28 µM | TGI (KM12 colon): 5.88 µM | GI50 (LOX IMVI melanoma): 3.15 µM | TGI (LOX IMVI melanoma): 13.7 µM | GI50 (M14 melanoma): 2.26 µM | TGI (M14 melanoma): 6.98 µM | GI50 (MALME-3M melanoma): 11.2 µM | TGI (MALME-3M melanoma): 25.9 µM | GI50 (MCF7 breast): 5.24 µM | TGI (MCF7 breast): > 100 µM | GI50 (MDA-MB-231 breast): 2.6 µM | TGI (MDA-MB-231 breast): 15.2 µM | GI50 (MDA-MB-435): 3.43 µM | TGI (MDA-MB-435): 11.1 µM | GI50 (NCI-H226 lung): 2.34 µM | TGI (NCI-H226 lung): 6.45 µM | GI50 (NCI-H23 lung): 3.51 µM | TGI (NCI-H23 lung): 12.6 µM | GI50 (NCI-H460 lung): 2.7 µM | TGI (NCI-H460 lung): 9.93 µM | GI50 (NCI-H522 lung): 1.68 µM | TGI (NCI-H522 lung): 5.73 µM | GI50 (NCI/ADR-RES ovarian): 2 µM | TGI (NCI/ADR-RES ovarian): 6.05 µM | GI50 (OVCAR-3 ovarian): 10.6 µM | TGI (OVCAR-3 ovarian): 22.7 µM | GI50 (OVCAR-4 ovarian): 11.9 µM | TGI (OVCAR-4 ovarian): 74.7 µM | GI50 (OVCAR-5 ovarian): 6.37 µM | TGI (OVCAR-5 ovarian): 20.7 µM | GI50 (OVCAR-8 ovarian): 4.2 µM | TGI (OVCAR-8 ovarian): 16.7 µM | GI50 (PC-3 prostate): 2.17 µM | TGI (PC-3 prostate): 12.5 µM | GI50 (RPMI-8226 leukemia): 1.08 µM | TGI (RPMI-8226 leukemia): 9.79 µM | GI50 (RXF 393 renal): 7.94 µM | TGI (RXF 393 renal): 46 µM | GI50 (SF-268 CNS): 2.66 µM | TGI (SF-268 CNS): 11 µM | GI50 (SF-295 CNS): 12.8 µM | TGI (SF-295 CNS): 27.1 µM | GI50 (SF-539 CNS): 4.1 µM | TGI (SF-539 CNS): 15.6 µM | GI50 (SK-MEL-2 melanoma): 2.77 µM | TGI (SK-MEL-2 melanoma): 11.7 µM | GI50 (SK-MEL-28 melanoma): 18.5 µM | TGI (SK-MEL-28 melanoma): > 100 µM | GI50 (SK-MEL-5 melanoma): 3.86 µM | TGI (SK-MEL-5 melanoma): 16.4 µM | GI50 (SK-OV-3 ovarian): 11.5 µM | TGI (SK-OV-3 ovarian): 27.1 µM | GI50 (SN12C renal): 2.61 µM | TGI (SN12C renal): 9.3 µM | GI50 (SNB-19 CNS): 15.7 µM | TGI (SNB-19 CNS): 48.6 µM | GI50 (SNB-75 CNS): 21.9 µM | TGI (SNB-75 CNS): > 100 µM | GI50 (SR leukemia): 1.51 µM | TGI (SR leukemia): 4.21 µM | GI50 (SW-620 colon): 5.55 µM | TGI (SW-620 colon): 25 µM | GI50 (T-47D breast): 17.3 µM | TGI (T-47D breast): 43 µM | GI50 (TK-10 renal): 1.47 µM | TGI (TK-10 renal): 6.6 µM | GI50 (U251 CNS): 2.88 µM | TGI (U251 CNS): 11.2 µM | GI50 (UACC-257 melanoma): 13.4 µM | TGI (UACC-257 melanoma): 31.8 µM | GI50 (UACC-62 melanoma): 2.12 µM | TGI (UACC-62 melanoma): 6.19 µM | GI50 (UO-31 renal): 1.26 µM | TGI (UO-31 renal): 15 µM
